The source of these data is patent publication US7214669B2, “Tetracycline derivatives and methods of use thereof” (Tetragenex Pharmaceuticals, Inc., priority 2001, dated 2007).

Test [1] concerns C8161 human melanoma cells. Briefly: Membrane Invasion Culture System (MICS) chemo-invasion assay. It counts as cell-based. To be noted: 24 hours, + = increased invasiveness. The source says:
(§1) Another objective was to analyze the effects of specific, tetracycline derived compounds on the in-vitro chemo-invasive potential of: • C8161 human melanoma cells • MDA-MB-231 human breast cancer cells • PC3 human prostate cancer cells • RPM18226 human myeloma cancer cells • Ark human myeloma cancer cells • Arp-1 human myeloma cancer cells
(§2) The Membrane Invasion Culture System (MICS) in vitro chemo-invasion assay was chosen to measure changes in the invasive potential of specific human cancer cells in response to tetracycline derived compounds. Stock solutions of each compound were hydrated in water containing 2% DMSO and pH 10.0. Upon solubilization, HCl was added to the solution to establish a pH of 7.5–8.0. This solution was then wrapped in foil and kept at 4° C. during the 24 hours of assay. Fresh compound was prepared for each assay. The in vitro chemoinvasion analyses for tumor cell invasiveness are performed using the Membrane Invasion Culture System (MICS) as previously described.
(§3) The MICS system is a thermally treated plastic manifold system consisting of two matched sets of plates containing fourteen wells, 13 mm in diameter. Interposed between these plates was a polycarbonate filter containing 10 μm pores and coated with a defined matrix composed of human laminin/collagen IV/gelatin that formed a 35 μm thick barrier between the top and bottom sections of the wells in MICS. Prior to placing this barrier in place, the lower wells were filled with serum-free RPMI culture medium made 50% in conditioned medium obtained from 2-day-old cultures of human fibroblasts which had been cleared of cells and cellular debris by either centrifugation, or filtering through a 0.45 μm sterile filter. The barrier was then placed on the lower wells and fresh serum-free medium added to the upper wells after assembly of the system. Fifty thousand tumor cells were then added to the wells either in the presence of the compound, or the DMSO vehicle (the controls). Of the 12 assay wells on each manifold, 3 randomized wells acted as controls, 3 wells received 1 μg/ml of compound, 3 received 10 μg/ml and 3 received 25 μg/ml. After 24 hours, cells and media were removed from the lower wells and replaced by phosphate buffered saline plus 2 mM EDTA. This solution was used to remove all cells from the lower well, and this wash was added to the recovered cells plus medium from the same well. These samples were then collected onto a polylysine containing polycarbonate membrane containing 3 μm pores using a Dot-Blot manifold system. These collection filters were then fixed in methanol, and stained using Wright's stain (Leukostat staining kit) in situ. The filters were then mounted on microscope slides with microscope immersion oil (which reduced the light refraction from the pores) and 5 microscopic fields were counted to calculate the number of cells which invaded through the membrane over the 24 hour period. These numbers were then statistically analyzed as discussed below.

Test [2] has as its system MDA-MB-231 human breast cancer cells. The description is as above. The class given is cell-based. To be noted: 24 hours, + = increased invasiveness.
From the text: as §1, §2, §3

Test [3] concerns RPMI-8226 human myeloma cancer cells. The description is as above. It counts as cell-based. To be noted: 24 hours, + = increased invasiveness.
From the text: as §1, §2, §3

Test [4] deals with PC-3 ML human prostate cancer cells. The test is described as above. It counts as cell-based. To be noted: 24 hours, + = increased invasiveness.
From the text: as §1, §2, §3

A further test has as its target Human recombinant MMP3 (Homo sapiens, UniProt P08254). Briefly: MMP3 (Stromelysin 1) inhibition, 14C casein release. The class given is biochemical. To be noted: 37° C., 16 hours; read-out: MMP-3 inhibitory activity, IC50.
In another test the target is Human recombinant MMP14 (Homo sapiens, UniProt P50281). Briefly: MMP14 (MTI-MMP) inhibition, 14C collagen release. The class given is biochemical. To be noted: 35° C., 15 hours; read-out: MMP-14 inhibitory activity, IC50.
The next test has as its target T1, Human recombinant MMP1 (Homo sapiens, UniProt P03956).
T1 sequence (P03956 100-469): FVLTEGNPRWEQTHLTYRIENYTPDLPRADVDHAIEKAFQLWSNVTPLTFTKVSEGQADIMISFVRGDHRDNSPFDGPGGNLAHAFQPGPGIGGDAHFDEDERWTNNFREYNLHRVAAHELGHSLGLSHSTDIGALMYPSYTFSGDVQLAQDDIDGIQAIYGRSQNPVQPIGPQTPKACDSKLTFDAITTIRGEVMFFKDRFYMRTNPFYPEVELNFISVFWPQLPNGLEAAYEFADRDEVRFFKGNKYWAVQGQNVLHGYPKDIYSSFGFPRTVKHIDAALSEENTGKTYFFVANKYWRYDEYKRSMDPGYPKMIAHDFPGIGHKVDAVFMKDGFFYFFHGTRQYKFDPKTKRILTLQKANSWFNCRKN
Briefly: MMP1 (Collagenase-1) inhibition, 14C collagen release. To be noted: 35° C., 5 hours; read-out: MMP-1 inhibitory activity, IC50. It counts as biochemical.

The target in a further test is T2, MMP2 (Gelatinase A) (Homo sapiens, UniProt P08253).
T2 sequence (P08253 110-660): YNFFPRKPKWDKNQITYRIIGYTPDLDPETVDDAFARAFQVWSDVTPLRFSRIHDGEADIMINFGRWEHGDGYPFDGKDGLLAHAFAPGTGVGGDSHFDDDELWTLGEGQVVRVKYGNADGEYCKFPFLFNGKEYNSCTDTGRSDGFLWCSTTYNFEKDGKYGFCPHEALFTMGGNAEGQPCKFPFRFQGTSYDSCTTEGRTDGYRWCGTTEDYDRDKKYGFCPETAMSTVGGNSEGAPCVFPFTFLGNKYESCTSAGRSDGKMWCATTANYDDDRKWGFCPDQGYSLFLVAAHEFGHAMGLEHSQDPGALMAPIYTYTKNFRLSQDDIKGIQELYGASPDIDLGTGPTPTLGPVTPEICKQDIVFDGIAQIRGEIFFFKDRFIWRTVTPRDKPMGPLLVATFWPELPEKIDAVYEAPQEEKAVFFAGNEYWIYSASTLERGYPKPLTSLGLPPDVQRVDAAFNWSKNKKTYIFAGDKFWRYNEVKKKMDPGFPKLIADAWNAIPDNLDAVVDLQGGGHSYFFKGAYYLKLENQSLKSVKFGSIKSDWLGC
Briefly: MMP2 (Gelatinase A) inhibition, 14C gelatin release. The class given is biochemical. To be noted: 37° C., 16 hours; read-out: MMP-2 inhibitory activity, IC50.

In a further test the target is Human recombinant MMP9 (Homo sapiens, UniProt P14780). Briefly: MMP9 (Gelatinase B) inhibition, 14C gelatin release. The class given is biochemical. To be noted: 37° C., 16 hours; read-out: MMP-9 inhibitory activity, IC50.
Sequence of Human recombinant MMP9 (P14780 94-707): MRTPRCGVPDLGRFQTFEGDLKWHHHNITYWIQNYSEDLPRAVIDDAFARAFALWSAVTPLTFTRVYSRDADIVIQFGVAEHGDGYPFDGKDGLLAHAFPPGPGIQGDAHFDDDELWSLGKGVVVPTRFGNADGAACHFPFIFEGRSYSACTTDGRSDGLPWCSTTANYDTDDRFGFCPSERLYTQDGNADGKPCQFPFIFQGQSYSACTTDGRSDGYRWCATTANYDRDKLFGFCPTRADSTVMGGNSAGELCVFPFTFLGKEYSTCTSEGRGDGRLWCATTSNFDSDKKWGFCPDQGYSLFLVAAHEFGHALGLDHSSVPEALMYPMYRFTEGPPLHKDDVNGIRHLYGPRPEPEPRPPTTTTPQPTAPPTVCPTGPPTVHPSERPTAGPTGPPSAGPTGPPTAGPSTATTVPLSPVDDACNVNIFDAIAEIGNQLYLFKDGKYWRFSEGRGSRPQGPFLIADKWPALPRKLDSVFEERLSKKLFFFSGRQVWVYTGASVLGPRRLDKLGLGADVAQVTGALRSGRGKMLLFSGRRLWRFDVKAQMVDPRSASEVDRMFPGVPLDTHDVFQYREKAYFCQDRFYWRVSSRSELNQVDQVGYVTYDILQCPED

Sequence of Human recombinant MMP3 (P08254 100-477): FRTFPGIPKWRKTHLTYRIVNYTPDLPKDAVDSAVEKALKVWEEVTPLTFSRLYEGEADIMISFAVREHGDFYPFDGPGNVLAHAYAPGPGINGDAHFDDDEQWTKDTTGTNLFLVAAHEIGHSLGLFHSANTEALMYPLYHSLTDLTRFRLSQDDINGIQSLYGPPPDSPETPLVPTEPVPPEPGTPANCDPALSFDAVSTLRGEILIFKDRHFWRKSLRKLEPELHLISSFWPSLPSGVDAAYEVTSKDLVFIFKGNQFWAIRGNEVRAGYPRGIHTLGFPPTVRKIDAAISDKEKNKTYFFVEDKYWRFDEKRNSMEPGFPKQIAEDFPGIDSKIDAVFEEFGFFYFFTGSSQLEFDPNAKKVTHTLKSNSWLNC
Procedure for Human recombinant MMP3: Protocol for Measuring MMP3 (Stromelysin 1) Inhibition
• 100 μg ^14C casein (7000 dpm) • 50 mM Tris HCl, pH 7.9 • 15 mM CaCl2, 0.02% azide • Human recombinant MMP3, 0.25–1.0 nM • ±tetracycline (up to 1 mM) in a total volume of 250 μl.
Incubations were at 37° C. for 16 hours. The reaction was stopped by the addition of 500 μl cold 18% TCA and standing on ice for 15 minutes. TCA precipitates were removed by centrifugation at 10,000 g for 10 minutes at 4° C. and 200 μl supernatant was taken for scintillation counting. Only data derived from within the linear part of the assay (10–60% lysis) were utilized. The percentage inhibition of MMP3 by each concentration of the candidate tetracycline was plotted to derive the IC50 value, using linear regression analysis.

By IC50 is commonly meant the concentration needed to halve the response being measured. For the compound `CC1c2ccc([N+]#N)c(O)c2C(=O)C2=C(O)C3(O)C(=O)C(C(N)=O)=C(O)CC3C(O)C21.O=S(=O)([O-])O` (stereo not shown) [Compound 37, 4-Dedimethylamino-6-deoxy-5-hydroxytetracycline-9-diazonium sulfate], the “percent inhibition, C8161 (Melanoma)” value in test [1] (1 ug/mL) is “+1%”; in [1] (10 ug/mL), 20%; in test [1] (25 ug/mL) it was 69^B percent. Further, the “percent inhibition, MDA-MB-231 (Breast)” value was “+6%” in test [2] (1 ug/mL), 1% in test [2] (10 ug/mL) and 46^B percent in [2] (25 ug/mL). Besides, the “percent inhibition, RPMI-8226 (Multiple Myeloma)” value is recorded as 10% in [3] (1 ug/mL), 5% in test [3] (10 ug/mL) and 46^B percent in test [3] (25 ug/mL). For the same compound, the “percent inhibition, PC-3 ML (Prostrate)” value in test [4] (1 ug/mL) is listed as 11%; in [4] (10 ug/mL), 26%; in test [4] (25 ug/mL) it was 36%. The IC50 on Human recombinant MMP3 is 274 µM; at Human recombinant MMP14 it was 41 µM; at Human recombinant MMP1, 279 µM; on MMP2 (Gelatinase A), over 1000 µM; at Human recombinant MMP9, 445 µM.

As to `CC1c2ccc(C(C)(C)C)c(O)c2C(=O)C2=C(O)C3(O)C(=O)C(C(N)=O)=C(O)C(N(C)C)C3C(O)C21` (stereo not shown) [Compound 39, 9-tertbutyl-6-deoxy-5-hydroxytetracycline H2SO4], the entries for the “percent inhibition, C8161 (Melanoma)” value in test [1] (1 ug/mL), in test [1] (10 ug/mL) and in test [1] (25 ug/mL) were 10%, 11% and 24%, respectively. Further, the “percent inhibition, MDA-MB-231 (Breast)” value in [2] (1 ug/mL) is 18^B percent; in [2] (10 ug/mL), 29^B percent; in test [2] (25 ug/mL), 76^B percent. Also, the “percent inhibition, RPMI-8226 (Multiple Myeloma)” value was 5% in test [3] (1 ug/mL), 10% in [3] (10 ug/mL) and 46^B percent in test [3] (25 ug/mL). For the same compound, the “percent inhibition, PC-3 ML (Prostrate)” value is 44^B percent in [4] (1 ug/mL), 67^B percent in [4] (10 ug/mL) and 69^B percent in test [4] (25 ug/mL). Also, the IC50 on Human recombinant MMP3 is 682 µM; at Human recombinant MMP14 it was 83 µM; at Human recombinant MMP1, 860 µM; at MMP2 (Gelatinase A), 186 µM; on Human recombinant MMP9 it was 114 µM.

Turning to `CN(C)c1ccc(O)c2c1CC1CC3CC(O)=C(C(N)=O)C(=O)C3(O)C(O)=C1C2=O` (stereo not shown) [Compound 41, 4-Dedimethylamino-7-dimethylamino-6-demethyl-6-deoxy-tetracycline H2SO4], the “percent inhibition, C8161 (Melanoma)” value in test [1] (1 ug/mL) is on record as 2%; in test [1] (10 ug/mL), 8%; in test [1] (25 ug/mL), 6%. For the same compound, the figures for the “percent inhibition, MDA-MB-231 (Breast)” value in test [2] (1 ug/mL), in [2] (10 ug/mL) and in test [2] (25 ug/mL) were “+8%”, 3% and 2%, respectively. For the same compound, the “percent inhibition, RPMI-8226 (Multiple Myeloma)” value is 7% in test [3] (1 ug/mL), “+6%” in test [3] (10 ug/mL) and 14% in test [3] (25 ug/mL). The “percent inhibition, PC-3 ML (Prostrate)” value in test [4] (1 ug/mL) is “+4%”; in [4] (10 ug/mL), 4%; in test [4] (25 ug/mL) it was 4%. Besides, the IC50 came to 54 µM on Human recombinant MMP3; 403 µM at Human recombinant MMP14; 478 µM at Human recombinant MMP1; 889 µM on MMP2 (Gelatinase A); 250 µM at Human recombinant MMP9.

For the compound `CC1c2cccc(O)c2C(=O)C2=C(O)C3(O)C(=O)C(C(N)=O)=C(O)C([N+](C)(C)C)C3C(O)C21.[I-]` (stereo not shown) [Compound 46, 6-deoxy-5-hydroxytetracycline-4-Methiodide], the results for the “percent inhibition, C8161 (Melanoma)” value in [1] (1 ug/mL), in [1] (10 ug/mL) and in test [1] (25 ug/mL) were 21%, 7% and 10%, respectively. For the same compound, the “percent inhibition, MDA-MB-231 (Breast)” value in test [2] (1 ug/mL) is 20^B percent; in test [2] (10 ug/mL), “+5%”; in [2] (25 ug/mL), “+1%”. Further, the “percent inhibition, RPMI-8226 (Multiple Myeloma)” value in test [3] (1 ug/mL) is recorded as 7%; in test [3] (10 ug/mL), “+11%”; in test [3] (25 ug/mL), 12%. In addition, the “percent inhibition, PC-3 ML (Prostrate)” value in test [4] (1 ug/mL) is given as 20%; in [4] (10 ug/mL), 16%; in test [4] (25 ug/mL), 27^B percent. The IC50 was found to be 42 µM at Human recombinant MMP3; 90 µM at Human recombinant MMP14; 194 µM on Human recombinant MMP1; 3800 µM on MMP2 (Gelatinase A); 59 µM at Human recombinant MMP9.

Turning to `CC1c2c(N(NC(=O)OCc3ccccc3)C(=O)OCc3ccccc3)ccc(O)c2C(=O)C2=C(O)C3(O)C(=O)C(C(N)=O)=C(O)C(N(C)C)C3C(O)C21.Cl` (stereo not shown) [Compound 47, 7-(1,2-benzylcarboxyhydrazine)-6-deoxy-5-hydroxy-tetracycline HCl], the results for the “percent inhibition, C8161 (Melanoma)” value in [1] (1 ug/mL), in [1] (10 ug/mL) and in test [1] (25 ug/mL) were “+30%”, “+4%” and “+2%”, respectively. Moreover, the “percent inhibition, MDA-MB-231 (Breast)” value in test [2] (1 ug/mL) is “+17%”; in [2] (10 ug/mL), “+16^B percent”; in [2] (25 ug/mL), 0%. Moreover, the “percent inhibition, RPMI-8226 (Multiple Myeloma)” value in test [3] (1 ug/mL) is 28%; in test [3] (10 ug/mL), 18%; in test [3] (25 ug/mL) it was 60^B percent. Moreover, the results for the “percent inhibition, PC-3 ML (Prostrate)” value in test [4] (1 ug/mL), in test [4] (10 ug/mL) and in test [4] (25 ug/mL) were 3%, 3% and 5%, respectively. For the same compound, the IC50 on Human recombinant MMP3 is 68 µM; at Human recombinant MMP14, 60 µM; on Human recombinant MMP1, 318 µM; on MMP2 (Gelatinase A), 117 µM; on Human recombinant MMP9, 88 µM.
